Test results taken from US12653776B2, “Methods of treatment of cancer by continuous infusion of coenzyme Q10” (priority 2013, dated 2026).
Read-outs that look alike come from different tables or passages of the source.

What was measured:
[1] = in vivo
Procedure: The first-in-human Phase 1 study with coenzyme Q10 nanosuspension (40 mg/ml) was conducted in 50 patients with advanced solid tumors. The objectives were to assess the safety, maximum tolerated dose, PK and PD of coenzyme Q10, specifically a 4% coenzyme Q10 nanosuspension formulation (as described in WO 2011/112900, the entire contents of which are expressly incorporated herein by reference), administered as a 4-hour IV infusion 3 times weekly in 28-day cycles. […] Plasma concentration profiles and PK parameters were determined from blood samples collected pre-dose and at intervals to 48 hours post-dose.

[2] = First-in-human Phase 1 study (CTL0510), 4-hour IV infusion 3 times weekly: safety
Procedure: The first-in-human Phase 1 study with coenzyme Q10 nanosuspension (40 mg/ml) was conducted in 50 patients with advanced solid tumors. The objectives were to assess the safety, maximum tolerated dose, PK and PD of coenzyme Q10, specifically a 4% coenzyme Q10 nanosuspension formulation (as described in WO 2011/112900, the entire contents of which are expressly incorporated herein by reference), administered as a 4-hour IV infusion 3 times weekly in 28-day cycles. Nine dose levels were explored ranting from 5.62 to 139 mg/kg. Plasma concentration profiles and PK parameters were determined from blood samples collected pre-dose and at intervals to 48 hours post-dose.

[3] = tested on: solid tumors; assay: Phase 1a/b study, 96-hour continuous IV infusion: tumor response and PET; format: in vivo, human
Procedure: Assessments of the antitumor activity of coenzyme Q10 is performed at the end of Cycle 2 and every 2 cycles thereafter using standard techniques such as computerized tomography (CT) or magnetic resonance imaging (MRI) for patients with measurable disease. Response is evaluated using Response Evaluation Criteria in Solid Tumors (RECIST) v1.1. Patients who experience no unacceptable toxicity or disease progression, may receive additional 28-day cycles for up to 1 year on Arm 1 or 2. Patients on Arm 1 who progress may elect to continue coenzyme Q10 treatment in combination with gemcitabine, 5-FU, or docetaxel at the treating physician's discretion. Once a dose level of coenzyme Q10 monotherapy is evaluated and the CRC determines it safe to escalate to the next dose level, Cohort 1 of Treatment Arm 2 of coenzyme Q10 in combination with chemotherapy will open to accrual. Cohort 1 of Arm 2 patients are enrolled onto one of 3 chemotherapies, gemcitabine, 5-FU, or docetaxel. Cycle 1 of combination therapy (Arm 2) is 6 weeks in duration for patients with coenzyme Q10 administered twice weekly on Mondays and Wednesday for 6 weeks and chemotherapy administered on Fridays, Days 19, 26 and 33. Cycles 2-12 are 4 weeks in duration with coenzyme Q10 administered twice weekly on Mondays and Wednesdays for 4 weeks and chemotherapy administered on Fridays, Days 5, 12 and 19. Dose limiting toxicities are assessed during Cycle 1. Response is assessed after Cycle 2 (10 weeks) and responders who continue onto Cycles 2-12 are assessed every 2 cycles (8 weeks). […] Patients on Arm 2 who progress on one type of chemotherapy may not switch to one of the other chemotherapy agents in combination with coenzyme Q10. However, if the chemotherapy component (i.e., 5-FU, gemcitabine, or docetaxel) of combination therapy is discontinued due to chemotherapy-related toxicity, patients may continue to receive coenzyme Q10 as monotherapy.
Blood samples for pharmacokinetic and pharmacodynamic analyses are collected during each cycle of monotherapy and combination therapy. Urine samples for determination of coenzyme Q10 renal clearance are collected only during Cycle 1 of monotherapy and combination therapy. A PET scan is performed within 2 weeks prior to starting treatment and after 2 weeks of coenzyme Q10 treatment, and 8 weeks of treatment on Arm 1 or 10 weeks of treatment on Arm 2. Core biopsies (2-3) are performed at the time of baseline and Week 2 PET scan for patients who opt-in to participate in these exploratory studies.

[4] = Patient 1, 66 mg/kg week monotherapy, end of two cycles

coenzyme Q10
Tmax and Cmax ([1]; human): generally associated with the end of the infusion | AUC0-168 (estimated weekly) ([1]; human, 176 mg/kg): 68,787 μg*hr/mL | Cmax (estimated weekly) ([1]; human, 176 mg/kg): 1,558 μg/mL | AUC0-168 (estimated weekly) ([1]; human, 235 mg/kg): 74,640 μg*hr/mL | Cmax (estimated weekly) ([1]; human, 235 mg/kg): 1,592 μg/mL | AUC0-168 (estimated weekly) ([1]; human, 313 mg/kg): 125,953 μg*hr/mL | Cmax (estimated weekly) ([1]; human, 313 mg/kg): 2,198 μg/mL | t1/2 ([1]; human, iv): 2.18 to 18.0 h | accumulation with increasing duration of dosing [1]: no apparent accumulation | dose-proportionality ([1]; 22.5 mg/kg): dose-proportionality appeared linear | serious adverse events (bleeding) resulting in the patient's death due to hemothorax ([2]; 104.3 mg/kg dose level): One | AST increased, laboratory AE ([2]; in vivo): 8% | CTCAE grade of the majority of adverse events ([2]; in vivo): grade 1 or 2 | PTT prolonged, laboratory AE ([2]; in vivo): 80% | SAEs reported as possibly related to coenzyme Q10 ([2]; in vivo): Two | alkaline phosphatase increased, laboratory AE ([2]; in vivo): 2% | arthritis, AE related to coenzyme Q10 ([2]; in vivo): 4% | chills, AE related to coenzyme Q10 ([2]; in vivo): 6% | dose limiting toxicities (DLTs) ([2]; in vivo): no dose limiting toxicities (DLTs) were identified | fatigue, AE related to coenzyme Q10 ([2]; in vivo): 24% | fever, AE related to coenzyme Q10 ([2]; in vivo): 8% | headache, AE related to coenzyme Q10 ([2]; in vivo): 10% | increased INR considered related to coenzyme Q10 ([2]; in vivo): 68% | nausea, AE related to coenzyme Q10 ([2]; in vivo): 8% | patients who died due to disease progression or intercurrent illness during the study ([2]; in vivo): Twenty | patients who discontinued treatment due to AEs reported as unrelated to treatment ([2]; in vivo): Four | patients who experienced abnormal INR values ([2]; in vivo): 38 patients | patients with clinically significant increased INR ([2]; in vivo): 14 patients | platelet count decreased, laboratory AE ([2]; in vivo): 14% | vital signs or physical examination findings ([2]; in vivo): No clinically significant changes | patients evaluable for efficacy showing various responses ([3]; Eight out of twelve patients, after dose level 2): 75% | multiomics tissue analysis ([3]; Patient 1, 66 mg/kg week monotherapy): switch from anaerobic driven markers to oxidative phosphorylation | cervical lymph node metastases [3, 4]: disappearance of cervical lymph node metastases | size of the target lesion [3, 4]: minimal changes | decrease on PET-SUV ([3]; Patient 1, gastric adenocarcinoma, 66 mg/kg week monotherapy, end of two cycles): 40% | PET/CT response ([3]; Patient 1 after switch to combination arm adding weekly docetaxel): again showed metabolic responses by PET/CT | Max SUV, Right iliac bone lesion ([3]; Patient 2, gemcitabine + coenzyme Q10 66 mg/kg, Week 10 PET, from 2.3): 1.9 | Max SUV, Omentum lesion 2 ([3]; Patient 2, gemcitabine + coenzyme Q10 66 mg/kg, Week 10 PET, from 3.5): 2.8 | non-target lesion response ([3]; Patient 2, gemcitabine + coenzyme Q10 66 mg/kg, lesion in the abdomen): complete response in one of the non-target lesions | Max SUV, Omentum lesion 1 ([3]; Patient 2, metastatic bladder cancer, gemcitabine + coenzyme Q10 66 mg/kg, Week 10 PET, previous value 1.7): 0.8 | outcomes by RECIST criteria ([3]; expected at the end of the ongoing study): clinically relevant outcomes | antitumor activity in a variety of solid tumors ([3]; gastric, pancreatic, colon, head and neck, NSCLC, mesothelioma, TN breast cancer): showed early activity at low doses
